Measured values taken from the supplement of paper PMC10307832.

Columns and labels:
Experiment in all cases: relative viability (nuclei count vs DMSO), 5 days (fraction); higher = more cells survive
[1] = compound: CC(C)C[C@H](NC(=O)[C@H](Cc1ccccc1)NC(=O)c1cnccn1)B(O)O [Bortezomib] + Cc1nc(Nc2ncc(C(=O)Nc3c(C)cccc3Cl)s2)cc(N2CCN(CCO)CC2)n1 [Dasatinib] (partner 0.075 µM)
How it was run: (§1)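 Lung cancer cell lines were pin-tool dosed in 1536-well plates on the day after seeding, with either a lone drug or a fixed anchor-drug dose plus five library-drug doses (not always all listed) in √10 steps. Nuclei were counted on 4× images after 5 days. Relative viability is the ratio of treated-well to vehicle-well nuclei counts, with each value a median of duplicate plates.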

[2] = compound: COC1=CC(c2cc3ccccc3[nH]2)=N/C1=C\c1[nH]c(C)cc1C [Obatoclax] + CCNC(=O)c1noc(-c2cc(C(C)C)c(O)cc2O)c1-c1ccc(CN2CCOCC2)cc1 [Luminespib] (partner 0.01 µM)
How it was run: as §1

[3] = compound: COC1=CC(c2cc3ccccc3[nH]2)=N/C1=C\c1[nH]c(C)cc1C [Obatoclax] + C[C@]1(O)C[C@@H](c2nc(-c3ccc4ccc(-c5ccccc5)nc4c3)c3c(N)nccn32)C1 [Linsitinib] (partner 1 µM)
How it was run: as §1

[4] = compound: COC1=CC(c2cc3ccccc3[nH]2)=N/C1=C\c1[nH]c(C)cc1C [Obatoclax] + NC(=O)Nc1cc(-c2cccc(F)c2)sc1C(=O)N[C@H]1CCCNC1 [AZD7762] (partner 0.2 µM)
How it was run: as §1

Row | Cell Line | relative viability ([1]; first compound 0.0002 µM) | relative viability ([1]; first compound 0.000632 µM) | relative viability ([1]; first compound 0.002 µM) | relative viability ([1]; first compound 0.006325 µM) | relative viability ([1]; first compound 0.02 µM) | relative viability ([2]; first compound 0.01 µM) | relative viability ([2]; first compound 0.03162 µM) | relative viability ([2]; first compound 0.1 µM) | relative viability ([2]; first compound 0.3162 µM) | relative viability ([2]; first compound 1 µM) | relative viability ([3]; first compound 0.01 µM) | relative viability ([3]; first compound 0.03162 µM) | relative viability ([3]; first compound 0.1 µM) | relative viability ([3]; first compound 0.3162 µM) | relative viability ([3]; first compound 1 µM) | relative viability ([4]; first compound 0.01 µM) | relative viability ([4]; first compound 0.03162 µM) | relative viability ([4]; first compound 0.1 µM) | relative viability ([4]; first compound 0.3162 µM) | relative viability ([4]; first compound 1 µM)
1 | NCI-H838 | 0.271 | 0.261 | 0.32 | 0.209 | 0.16 | 0.226 | 0.222 | 0.3 | 0.243 | 0.188 | 0.984 | 1.06 | 0.862 | 0.717 | 0.935 | 0.873 | 0.933 | 0.776 | 0.889 | 0.656
2 | LCLC-97TM1 | 0.738 | 0.732 | 0.862 | 0.718 | 0.148 | 0.734 | 0.563 | 0.788 | 0.761 | 0.532 | 0.166 | 0.224 | 0.182 | 0.163 | 0.179 | 0.218 |  | 0.203 | 0.229 | 0.206
3 | HCC-15 | 0.514 | 0.629 | 0.649 | 0.0786 | 0.0817 | 0.302 | 0.148 | 0.267 | 0.361 | 0.274 | 0.879 | 0.708 | 0.845 | 0.736 | 0.606 | 1.04 | 1.34 | 1.21 | 1.25 | 1.36
4 | CAL-12T | 0.538 | 0.347 | 0.53 | 0.119 | 0.0844 | 0.493 | 0.292 | 0.273 | 0.122 | 0.118 | 0.646 | 0.773 | 0.919 | 0.809 | 0.526 | 0.616 | 0.554 | 0.531 | 0.518 | 0.294
5 | NCI-H727 | 0.369 | 0.38 | 0.415 | 0.184 | 0.147 | 0.278 | 0.344 | 0.347 | 0.316 | 0.342 | 0.372 | 0.28 | 0.343 | 0.267 | 0.231 | 0.747 | 0.552 | 0.827 | 0.573 | 0.573
6 | ABC-1 | 0.6 | 0.317 | 0.243 | 0.224 | 0.233 | 0.551 | 0.555 |  | 0.322 | 0.397 | 0.619 | 0.768 | 0.815 | 0.928 | 0.372 | 0.639 | 0.749 |  | 0.817 | 0.839
7 | NCI-H358 | 0.162 | 0.153 | 0.164 | 0.084 | 0.073 | 0.395 | 0.245 | 0.449 | 0.351 | 0.161 | 0.735 | 0.504 | 0.394 | 0.344 | 0.278 | 0.519 | 0.438 | 0.543 | 0.307 | 0.224
8 | NCI-H1993 | 0.542 | 0.578 | 0.577 | 0.408 | 0.456 | 0.868 | 0.869 | 0.845 | 0.615 | 0.863 | 0.754 | 0.772 | 0.712 | 0.737 | 0.623 | 0.769 | 0.789 | 0.898 | 0.818 | 0.536
9 | ChaGo-K-1 | 0.535 | 0.539 | 0.558 | 0.207 | 0.13 | 0.718 | 0.565 | 0.487 | 0.561 | 0.426 |  |  |  |  |  | 0.892 | 0.88 | 0.831 | 0.881 | 0.914
